Experimental data: publication PMC7870075, “Physicochemical properties and formulation development of a novel compound inhibiting Staphylococcus aureus biofilm formation” (PLoS ONE, 2021)
≈ marks a conversion by molar mass, not a printed value. Like-named read-outs stand apart in the source and are kept apart here. Marks after values point to notes of the source that are not given here.

Tests used:
[1] = Solubility in organic solvents; assay type: physicochemical; conditions: thermodynamic from solid
Procedure: The concentration of CCG-211790 in organic solvents was carried out on a LabTech BlueStar plus UV-Vis spectrophotometer (Hopkinton, MA, USA) using dimethylformamide (DMF) as a reference solvent. UV-Vis absorption spectra were recorded in a wavelength range from 200–500 nm with samples placed in a quartz cuvette. CCG-211790 concentrations in organic solvents were determined based on the absorption of CCG-211790 at characteristic wavelength of 314 nm. Calibration curves were established giving a correlation coefficient more than 0.999. The solubility of CCG-211790 in organic solvents were also determined. CCG-211790 bulk powder was added in excess to 0.1–1 mL of an organic solvent. After ultrasonication for 30 min and incubation for 24 h at room temperature on a shaking platform to reach the saturation status, sample aliquots (0.5 mL) were centrifuged at 10,400 ×g for 10 min, and 10 μL of supernatant was diluted 500–50,000-fold with dimethylformamide (DMF). The saturation solubility of CCG-211790 in various organic solvents was determined via ultraviolet-visible spectrophotometry (UV-Vis) with DMF as the reference solvent.

[2] = Effect of pH on CCG-211790 degradation; assay type: physicochemical; conditions: for CCG-211790 concentration: 37°C; for chemical stability: twelve weeks
Procedure: The concentration of CCG-211790 in deionized water or aqueous solutions was determined using an Agilent series 1100 HPLC system (Agilent Technologies, Santa Clara, CA, USA) equipped with diode array detector. Sample separation was carried out with a Kinetex C18 column (75 mm × 3 mm, particle size 2.6 μm, Phenomenex Inc., Torrance, CA, USA). The mobile phase of acetonitrile-water (50:50, v/v) was used for chromatographic separation. The flow rate was set to 0.5 mL/min, column temperature to 35°C. The absorption was measured at wavelength 255 nm. The injection volume was 30 μL. The retention time of CCG-211790 was 4.9 min. The method detection limit was 0.02 mg/L. Calibration curves were established giving a correlation coefficient >0.9900. Effect of pH on CCG-211790 degradation was investigated at indicated pH (1–10) over a period of three months. Briefly, pH 1, 2 or 10 were achieved by dissolving CCG-211790 bulk powder in a mixture of acetonitrile and water (25:75, v/v) with the pH being adjusted with hydrochloride acid solution (12 mole/L) or sodium hydroxide solution (15 mole/L). Similarly, pH 3–9 were achieved by dissolving CCG-211790 powder in a mixture of acetonitrile and PBS (25:75, v/v) with the pH also being adjusted with the hydrochloride acid solution or the sodium hydroxide solution. All samples were incubated at 37°C. CCG-211790 concentrations in the mixture solutions were determined via HPLC analysis at predetermined time points (0, 2, 4 and 12 weeks).

Microsomal stability = assay type: in vitro ADME; conditions: mouse liver microsomes, NADPH, 37°C; read-out: half-life in mouse liver microsomes (t1/2)
Procedure: Microsomal stability assay was performed as previously described. CCG-211790 (100 mM stock solution in DMSO) was diluted 1000-fold with phosphate-buffered saline (PBS) containing up to 10% MeOH as a co-solvent. Compound (100 μM) was added to 366 μL of 100 mM phosphate buffer containing 3.3 mM MgCl2 and 10 μL of 20 mg/mL mouse liver microsomal extract (XenoTech, Lenexa, KS, USA). Enzymatic oxidation was initiated by adding 15 μL of 16.7 mg/mL NADPH in 100 mM phosphate buffer containing 3.3 mM MgCl2. The reactions were carried out at 37°C for 60 min. Aliquots of the reaction mixture (30 μL) were sampled and the reaction was stopped by adding 90 μL cold acetonitrile containing an internal standard compound at each time point (0, 1, 3, 5, 10, 30, and 60 min). The quenched sample mixtures were centrifuged at 16,000 g for 10 min. The supernatant was then analyzed via an LC–MS/MS system equipped with a reverse-phase column.

## COc1ccc2c(c1)-c1nc(SCC(F)(F)F)n(C)c(=O)c1C(C)(C)C2 [CCG-211790, 9-Methoxy-3,5,5-trimethyl-2-((2,2,2-trifluoroethyl)thio)-5,6-dihydrobenzo[h]quinazolin-4(3H)-one]
[1]; oil or lipid, Canola oil, room temperature, read-out: Solubility
  solubility at 24 h: 24.7 mg/mL (≈ 64.3 mM)
[1]; oil or lipid, Coconut oil, room temperature, read-out: Solubility
  solubility at 24 h: 37.2 mg/mL (≈ 96.8 mM)
[1]; oil or lipid, Oleic acid, room temperature, read-out: Solubility
  solubility at 24 h: 24.1 mg/mL (≈ 62.7 mM)
[1]; oil or lipid, Olive oil, room temperature, read-out: Solubility
  solubility at 24 h: 24.3 mg/mL (≈ 63.2 mM)
[1]; oil or lipid, Peanut oil, room temperature, read-out: Solubility
  solubility at 24 h: 22.3 mg/mL (≈ 58 mM)
[1]; oil or lipid, Safflower oil, room temperature, read-out: Solubility
  solubility at 24 h: 22.7 mg/mL (≈ 59 mM)
[1]; oil or lipid, Sesame oil, room temperature, read-out: Solubility
  solubility at 24 h: 22.7 mg/mL (≈ 59 mM)
[1]; oil or lipid, Sunflower oil, room temperature, read-out: Solubility
  solubility at 24 h: 20 mg/mL (≈ 52 mM)
[1]; oil or lipid, range over the edible oils of Table 2, read-out: solubility in edible oils
  solubility at 24 h: 20 to 37.2 mg/mL (≈ 52 to 96.8 mM)
[1]; organic solvent or mixture, Acetonitrile, room temperature, read-out: Solubility
  solubility at 24 h: 57.6 mg/mL (≈ 150 mM)
[1]; organic solvent or mixture, Dimethyl sulfoxide, room temperature, read-out: Solubility
  solubility at 24 h: 66.7 mg/mL (≈ 174 mM)
[1]; organic solvent or mixture, Dimethylacetamide, room temperature, read-out: Solubility
  solubility at 24 h: 278 mg/mL (≈ 724 mM)
[1]; organic solvent or mixture, Dimethylformamide, room temperature, read-out: Solubility
  solubility at 24 h: 215 mg/mL (≈ 560 mM)
[1]; organic solvent or mixture, Ethanol, room temperature, read-out: Solubility
  solubility at 24 h: 18.2 mg/mL (≈ 47.3 mM)
[1]; organic solvent or mixture, Glycerin, room temperature, read-out: Solubility
  solubility at 24 h: 1.3 mg/mL (≈ 3.38 mM)
[1]; organic solvent or mixture, Isopropyl alcohol, room temperature, read-out: Solubility
  solubility at 24 h: 15.4 mg/mL (≈ 40.1 mM)
[2]; pH 1, 0 week, acetonitrile/water
  CCG-211790 concentration: 11.1 µg/mL
[2]; pH 1, 2 weeks, acetonitrile/water
  CCG-211790 concentration: 9.4 ^* μg/mL
[2]; pH 1, 4 weeks, acetonitrile/water
  CCG-211790 concentration: 7.2 ^** μg/mL
[2]; pH 1, 12 weeks, acetonitrile/water
  CCG-211790 concentration: 2.1 ^** μg/mL
[2]; pH 1, 37°C
  chemical stability: degraded
[2]; pH 2, 0 week, acetonitrile/water
  CCG-211790 concentration: 11.6 µg/mL
[2]; pH 2, 2 weeks, acetonitrile/water
  CCG-211790 concentration: 11.9 µg/mL
[2]; pH 2, 4 weeks, acetonitrile/water
  CCG-211790 concentration: 11.2 ^* μg/mL
[2]; pH 2, 12 weeks, acetonitrile/water
  CCG-211790 concentration: 10.7 ^* μg/mL
[2]; pH 2–10, 37°C
  chemical stability: maintained most chemical stability
[2]; pH 3, 0 week, acetonitrile/PBS
  CCG-211790 concentration: 11.9 µg/mL
[2]; pH 3, 2 weeks, acetonitrile/PBS
  CCG-211790 concentration: 11.9 µg/mL
[2]; pH 3, 4 weeks, acetonitrile/PBS
  CCG-211790 concentration: 11.4 µg/mL
[2]; pH 3, 12 weeks, acetonitrile/PBS
  CCG-211790 concentration: 11.7 µg/mL
[2]; pH 4, 0 week, acetonitrile/PBS
  CCG-211790 concentration: 10.9 µg/mL
[2]; pH 4, 2 weeks, acetonitrile/PBS
  CCG-211790 concentration: 11.4 µg/mL
[2]; pH 4, 4 weeks, acetonitrile/PBS
  CCG-211790 concentration: 11.6 ^* μg/mL
[2]; pH 4, 12 weeks, acetonitrile/PBS
  CCG-211790 concentration: 11.3 µg/mL
[2]; pH 5, 0 week, acetonitrile/PBS
  CCG-211790 concentration: 11.0 µg/mL
[2]; pH 5, 2 weeks, acetonitrile/PBS
  CCG-211790 concentration: 11.3 ^* μg/mL
[2]; pH 5, 4 weeks, acetonitrile/PBS
  CCG-211790 concentration: 11.5 µg/mL
[2]; pH 5, 12 weeks, acetonitrile/PBS
  CCG-211790 concentration: 11.2 µg/mL
[2]; pH 6, 0 week, acetonitrile/PBS
  CCG-211790 concentration: 11.1 µg/mL
[2]; pH 6, 2 weeks, acetonitrile/PBS
  CCG-211790 concentration: 11.4 µg/mL
[2]; pH 6, 4 weeks, acetonitrile/PBS
  CCG-211790 concentration: 11.0 µg/mL
[2]; pH 6, 12 weeks, acetonitrile/PBS
  CCG-211790 concentration: 10.1 µg/mL
[2]; pH 7, 0 week, acetonitrile/PBS
  CCG-211790 concentration: 11.8 µg/mL
[2]; pH 7, 2 weeks, acetonitrile/PBS
  CCG-211790 concentration: 11.2 ^* μg/mL
[2]; pH 7, 4 weeks, acetonitrile/PBS
  CCG-211790 concentration: 10.9 ^* μg/mL
[2]; pH 7, 12 weeks, acetonitrile/PBS
  CCG-211790 concentration: 11.5 µg/mL
[2]; pH 8, 0 week, acetonitrile/PBS
  CCG-211790 concentration: 11.2 µg/mL
[2]; pH 8, 2 weeks, acetonitrile/PBS
  CCG-211790 concentration: 11.2 µg/mL
[2]; pH 8, 4 weeks, acetonitrile/PBS
  CCG-211790 concentration: 11.1 µg/mL
[2]; pH 8, 12 weeks, acetonitrile/PBS
  CCG-211790 concentration: 11.6 µg/mL
[2]; pH 9, 0 week, acetonitrile/PBS
  CCG-211790 concentration: 11.0 µg/mL
[2]; pH 9, 2 weeks, acetonitrile/PBS
  CCG-211790 concentration: 11.3 ^* μg/mL
[2]; pH 9, 4 weeks, acetonitrile/PBS
  CCG-211790 concentration: 11.2 µg/mL
[2]; pH 9, 12 weeks, acetonitrile/PBS
  CCG-211790 concentration: 10.5 µg/mL
[2]; pH 10, 0 week, acetonitrile/water
  CCG-211790 concentration: 10.4 µg/mL
[2]; pH 10, 2 weeks, acetonitrile/water
  CCG-211790 concentration: 11.0 ^* μg/mL
[2]; pH 10, 4 weeks, acetonitrile/water
  CCG-211790 concentration: 10.5 µg/mL
[2]; pH 10, 12 weeks, acetonitrile/water
  CCG-211790 concentration: 10.7 ^* μg/mL
Microsomal stability
  half-life: 19.6 min
